The test system of assay [1] is FEN1 nuclear localization in A2780cis cells. Nature of the assay: Confocal microscopy of FEN1 nuclear localization, A2780cis. Format: cell-based, human. The settings on record: pre-treatment with importin β inhibitor (5 µM) followed by cisplatin. As for the experimental part:
For PEO1 and PEO4 cells, the cells where keep in culture up to four weeks ([…]) until spheroids structures were formed.
To quantify cell viability, LIVE/DEAD Viability/Cytotoxicity Kit (L3224, Thermo Fisher Scientific) was used. Briefly, the spheroids were harvest by trypsinization, washed with PBS and centrifuge at 1000×g for 5 minutes. The light-protected cellular pellet in PBS was loaded with 0.1µM of Calcein-AM and 1 µM of Ethidium homodimer-1 for 20 minutes at room temperature. The samples were analysed on a Beckman-Coulter FC500 flow cytometer using a 495nm laser for excitation and a 515nm laser for emission data for Calcein AM and a 495nm laser for excitation and emission at 635nm for Ethidium Homodimer-1. In addition, Image J software was used to calculate spheroid diameter. Mean of three diagonal diameters was taken as diameter for each spheroid. At least 10 spheroids were measured. […]
Laboratories). Imaging was carried out using Leica SP2 confocal laser scanning microscope (CLSM) and analysed with ImageJ software (NIH, USA). For analysis a minimum of 100 cells per slide were counted.
On 3D structures, the spheroids were fixed with 4% paraformaldehyde for 30 minutes. […] Imaging was carried out using Leica SP2 confocal laser scanning microscope (CLSM) and analysed with ImageJ software (NIH, USA). […]

A further assay relates to A2780cis cells. The assay is described as follows: Clonogenic assay, A2780cis. The format is cell-based, human. The conditions noted are these: pre-treatment with importin β inhibitor, then cisplatin vs cisplatin only. The procedure: Clonogenic assay: In the clonogenic assay (colony formation assays), 32 cells/cm2 were seeded in 6-well plates and left at 37°C in a 5% CO2 atmosphere. Cisplatin (5µM) and/or FEN1i (10µM) and/or Importazole (5 µM, Selleckem, S8446 ) were added at the indicated concentrations and the plates were left at 37 °C in a 5% CO 2 atmosphere for 14 days. Later, the plates were washed with PBS, fixed and stained with a crystal violet, acetic acid and methanol solution and colonies were counted. […]

In assay [2] the test system is BRCA deficient germ-line or platinum-sensitive sporadic epithelial ovarian cancers. Further details: method as in PMID 22452356, PMID 27717299, PMID 28916367, PMID 27908594. The settings on record: maintenance therapy in patients; cited from earlier work.

SMILES strings stand for the structures.

In the case of `CC(Nc1nc(N2CCCC2)nc2ccccc12)c1ccccc1` (centres unmarked) [Importanzole], the “nuclear localization of FEN1” value in assay [1] was “reduced nuclear localization of FEN1”. Moreover, the “effect on cisplatin sensitivity” value in the assay on A2780cis cells was “re-sensitized these cells to cisplatin therapy”.

Consider `NC(=O)c1cccc2cn(-c3ccc([C@@H]4CCCNC4)cc3)nc12` [Niraparib], for which the progression-free survival entry in assay [2] is recorded as “substantially improves progression-free survival”.

With `O=C(c1cc(Cc2n[nH]c(=O)c3ccccc23)ccc1F)N1CCN(C(=O)C2CC2)CC1` [Olaparib], in assay [2], the progression-free survival entry was “substantially improves progression-free survival”.

In the case of `CNCc1ccc(-c2[nH]c3cc(F)cc4c3c2CCNC4=O)cc1` [Rucaparib], the progression-free survival result in assay [2] was “substantially improves progression-free survival”.

(Values after PMC8070745, “FEN1 Blockade for Platinum Chemo-Sensitization and Synthetic Lethality in Epithelial Ovarian Cancers” (Cancers, 2021).)
